Results taken from ChEMBL document CHEMBL5634112, “Synthesis and biological evaluation of fluoroquinolones containing a pyridoxine derivatives moiety” (Eur J Med Chem, 2023).
Values after ≈ are worked out from the molar mass of the structure shown.

How the values were obtained:
[1] = Cytotoxicity against human HSF assessed as reduction in cell viability incubated for 72 hrs by MTT assay; type: toxicity, cell-based; settings: HSF cells
[2] = system: Cedecea davisae; experiment: Antibacterial activity against clinical isolate Cedecea davisae 1813 assessed as reduction in microbial growth incubated for 24 hrs by broth microdilution method; type: functional
[3] = system: Staphylococcus aureus; experiment: Antibacterial activity against clinical isolate Staphylococcus aureus 4721 assessed as reduction in microbial growth incubated for 24 hrs by broth microdilution method; type: functional
[4] = system: Staphylococcus epidermidis; experiment: Antibacterial activity against clinical isolate Staphylococcus epidermidis assessed as reduction in microbial growth incubated for 24 hrs by broth microdilution method; type: functional
[5] = system: Staphylococcus aureus; experiment: Antibacterial activity against clinical isolate Staphylococcus aureus 1812 assessed as reduction in microbial growth incubated for 24 hrs by broth microdilution method; type: functional
[6] = system: Bacillus subtilis; experiment: Antibacterial activity against Bacillus subtilis 168 assessed as reduction in microbial growth incubated for 24 hrs by broth microdilution method; type: functional
[7] = system: Pseudomonas aeruginosa; experiment: Antibacterial activity against Pseudomonas aeruginosa ATCC 27853 assessed as reduction in microbial growth incubated for 24 hrs by broth microdilution method; type: functional
[8] = system: Pseudomonas aeruginosa; experiment: Antibacterial activity against clinical isolate Pseudomonas aeruginosa NKC 17 assessed as reduction in microbial growth incubated for 24 hrs by broth microdilution method; type: functional
[9] = system: Klebsiella aerogenes; experiment: Antibacterial activity against clinical isolate Enterobacter aerogenes NKC 8 assessed as reduction in microbial growth incubated for 24 hrs by broth microdilution method; type: functional
[10] = system: Staphylococcus epidermidis; experiment: Antibacterial activity against clinical isolate Staphylococcus epidermidis NKC 37/1 assessed as reduction in microbial growth incubated for 24 hrs by broth microdilution method; type: functional
[11] = Cytotoxicity against human CHL assessed as reduction in cell viability incubated for 72 hrs by MTT assay; type: toxicity, cell-based; settings: CHL cells
[12] = system: Escherichia coli; experiment: Antibacterial activity against clinical isolate Escherichia coli NKC 1 assessed as reduction in microbial growth incubated for 24 hrs by broth microdilution method; type: functional
[13] = system: Staphylococcus aureus; experiment: Antibacterial activity against clinical isolate methicillin resistant Staphylococcus aureus 4771 assessed as reduction in microbial growth incubated for 24 hrs by broth microdilution method; type: functional
[14] = system: Enterococcus faecalis; experiment: Antibacterial activity against clinical isolate Enterococcus faecalis 1465 assessed as reduction in microbial growth incubated for 24 hrs by broth microdilution method; type: functional
[15] = system: Staphylococcus haemolyticus; experiment: Antibacterial activity against clinical isolate Staphylococcus haemolyticus NKC 31/2 assessed as reduction in microbial growth incubated for 24 hrs by broth microdilution method; type: functional
[16] = system: Staphylococcus auricularis; experiment: Antibacterial activity against clinical isolate Staphylococcus auricularis NKC 7 assessed as reduction in microbial growth incubated for 24 hrs by broth microdilution method; type: functional
[17] = system: Escherichia coli; experiment: Antibacterial activity against Escherichia coli ATCC 25922 assessed as reduction in microbial growth incubated for 24 hrs by broth microdilution method; type: functional
[18] = system: Micrococcus luteus; experiment: Antibacterial activity against clinical isolate Micrococcus luteus assessed as reduction in microbial growth incubated for 24 hrs by broth microdilution method; type: functional
[19] = Cytotoxicity against human MSC assessed as reduction in cell viability incubated for 72 hrs by MTT assay; type: toxicity, cell-based; settings: MSC cells
[20] = system: Staphylococcus aureus; experiment: Antibacterial activity against methicillin sensitive Staphylococcus aureus ATCC 29213 assessed as reduction in microbial growth incubated for 24 hrs by broth microdilution method; type: functional
[21] = system: Staphylococcus haemolyticus; experiment: Antibacterial activity against clinical isolate Staphylococcus haemolyticus 1464 assessed as reduction in microbial growth incubated for 24 hrs by broth microdilution method; type: functional
[22] = system: Salmonella typhimurium; experiment: Antibacterial activity against Salmonella typhimurium TA100 assessed as reduction in microbial growth incubated for 24 hrs by broth microdilution method; type: functional, Salmonella enterica subsp. enterica serovar Typhimurium; settings: Salmonella enterica
[23] = system: Klebsiella pneumoniae; experiment: Antibacterial activity against clinical isolate Klebsiella pneumoniae 1678 assessed as reduction in microbial growth incubated for 24 hrs by broth microdilution method; type: functional

SMILES | MIC [4] [µg/mL] | MIC [6] [µg/mL] | MIC [7] [µg/mL] | MIC [17] [µg/mL] | MIC [18] [µg/mL] | MIC [20] [µg/mL] | MIC [22] [µg/mL] | further results
Cc1ncc(CN2CCN(c3cc4c(cc3F)c(=O)c(C(=O)O)cn4C3CC3)CC2)c2c1OCOC2.Cl | 0.5 | 2 | 32 | 8 | 16 | 1 | 0.5 | CC50 at 72 h [1]: 40.3 µg/mL; MIC [2]: 0.03 µg/mL; MIC [3]: 0.13 µg/mL; MIC [5]: 0.25 µg/mL; MIC [8]: 32 µg/mL; MIC [9]: 16 µg/mL; MIC [10]: 0.25 µg/mL; CC50 at 72 h [11]: 14.9 µg/mL; MIC [12]: 2 µg/mL; MIC [13]: 2 µg/mL; MIC [14]: 8 µg/mL; MIC [15]: 8 µg/mL; MIC [16]: 0.03 µg/mL; CC50 at 72 h [19]: 69.5 µg/mL; MIC [21]: 0.13 µg/mL; MIC [23]: 16 µg/mL
CCn1cc(C(=O)O)c(=O)c2cc(F)c(N3CCN(Cc4cnc(C)c5c4COCO5)C(C)C3)c(F)c21.Cl (centres undefined) | 16 | 4 | > 64 | 16 | 32 | 8 | 4 | –
COc1c(N2C[C@@H]3CCCN(Cc4cnc(C)c5c4COC(C)(C)O5)[C@@H]3C2)c(F)cc2c(=O)c(C(=O)O)cn(C3CC3)c12 | 2 | 2 | > 64 | > 64 | 4 | 2 | 4 | CC50 at 72 h [1]: 3.44 µg/mL (≈ 5.8 µM); MIC [2]: 0.5 µg/mL; MIC [3]: 0.5 µg/mL; MIC [5]: 1 µg/mL; MIC [8]: > 64 µg/mL; MIC [9]: 64 µg/mL; MIC [10]: 1 µg/mL; CC50 at 72 h [11]: 2.85 µg/mL (≈ 4.81 µM); MIC [12]: 4 µg/mL; MIC [13]: 4 µg/mL; MIC [14]: 32 µg/mL; MIC [15]: 32 µg/mL; MIC [16]: 0.03 µg/mL; CC50 at 72 h [19]: 3.84 µg/mL (≈ 6.48 µM); MIC [21]: 0.5 µg/mL; MIC [23]: 32 µg/mL
CCCCCCCCC1OCc2c(CN3CCN(c4cc5c(cc4F)c(=O)c(C(=O)O)cn5CC)CC3)cnc(C)c2O1 (centres undefined) | > 64 | 64 | > 64 | > 64 | > 64 | > 64 | > 64 | –
CCn1cc(C(=O)O)c(=O)c2cc(F)c(N3CCN(Cc4cnc(C)c(O)c4C)C(C)C3)c(F)c21.Cl (centres undefined) | > 64 | 1 | > 64 | 2 | 32 | 2 | 2 | –
CCn1cc(C(=O)O)c(=O)c2cc(F)c(N3CCN(Cc4cnc(C)c5c4COC(C)O5)C(C)C3)c(F)c21 (centres undefined) | 8 | 2 | 16 | > 64 | > 64 | 2 | 2 | –
CCCC1OCc2c(CN3CCN(c4c(F)cc5c(=O)c(C(=O)O)cn(CC)c5c4F)CC3C)cnc(C)c2O1 (centres undefined) | 8 | 2 | > 64 | > 64 | 16 | 16 | 2 | –
CCn1cc(C(=O)O)c(=O)c2cc(F)c(N3CCN(Cc4cnc(C)c5c4COC(C)(C)O5)C(C)C3)c(F)c21.Cl (centres undefined) | 64 | 2 | > 64 | > 64 | 8 | 16 | 2 | –
CCn1cc(C(=O)O)c(=O)c2cc(F)c(N3CCN(Cc4nc(C)c(O)c(CO)c4CO)C(C)C3)c(F)c21.Cl (centres undefined) | 64 | 2 | > 64 | 2 | 64 | 2 | 2 | –
COc1c(N2C[C@@H]3CCCN(Cc4cnc(C)c5c4COC(C)O5)[C@@H]3C2)c(F)cc2c(=O)c(C(=O)O)cn(C3CC3)c12 (some centres undefined) | 4 | 1 | > 64 | 16 | 4 | 1 | 4 | –
CCCCCCCCC1OCc2c(CN3CCC[C@H]4CN(c5c(F)cc6c(=O)c(C(=O)O)cn(C7CC7)c6c5OC)C[C@H]43)cnc(C)c2O1 (some centres undefined) | 32 | 8 | > 64 | > 64 | 16 | 16 | 16 | –
CCCCCCCCC1OCc2c(CN3CCN(c4c(F)cc5c(=O)c(C(=O)O)cn(CC)c5c4F)CC3C)cnc(C)c2O1 (centres undefined) | > 64 | > 64 | > 64 | > 64 | > 64 | > 64 | > 64 | –
CCn1cc(C(=O)O)c(=O)c2cc(F)c(N3CCN(Cc4cnc(C)c(O)c4C)CC3)cc21.Cl | 16 | 2 | > 64 | 2 | 8 | 4 | 64 | –

Continued, in another order:

MIC [4] [µg/mL] | MIC [6] [µg/mL] | MIC [7] [µg/mL] | MIC [17] [µg/mL] | MIC [18] [µg/mL] | MIC [20] [µg/mL] | MIC [22] [µg/mL] | SMILES | further results
> 64 | 64 | > 64 | 64 | > 64 | > 64 | > 64 | CCn1cc(C(=O)O)c(=O)c2cc(F)c(N3CCN(Cc4cnc(C)c5c4COC(C)(C)O5)CC3)cc21 | –
32 | 8 | > 64 | > 64 | 64 | 32 | 16 | CCn1cc(C(=O)O)c(=O)c2cc(F)c(N3CCN(Cc4cnc(C)c5c4COC(C)O5)CC3)cc21 (centres undefined) | –
16 | 8 | > 64 | 8 | 16 | 8 | 4 | CCn1cc(C(=O)O)c(=O)c2cc(F)c(N3CCN(Cc4c(CO)nc(C)c(O)c4CO)CC3)cc21.Cl | –
16 | 2 | > 64 | 64 | 32 | 32 | 4 | Cc1ncc(CN2CCN(c3cc4c(cc3F)c(=O)c(C(=O)O)cn4C3CC3)CC2)c2c1OC(C)(C)OC2.Cl | –
8 | 2 | > 64 | > 64 | 8 | 8 | 4 | Cc1ncc(CN2CCN(c3cc4c(cc3F)c(=O)c(C(=O)O)cn4C3CC3)CC2)c2c1OC(C)OC2.Cl (centres undefined) | –
32 | 2 | > 64 | > 64 | 64 | 16 | 2 | CCCC1OCc2c(CN3CCN(c4cc5c(cc4F)c(=O)c(C(=O)O)cn5CC)CC3)cnc(C)c2O1 (centres undefined) | –
32 | 4 | > 64 | 64 | 32 | 16 | 4 | CCn1cc(C(=O)O)c(=O)c2cc(F)c(N3CCN(Cc4cnc(C)c(O)c4CO)CC3)cc21.Cl | –
32 | 2 | > 64 | 64 | 32 | 64 | 4 | Cc1nc(CN2CCN(c3cc4c(cc3F)c(=O)c(C(=O)O)cn4C3CC3)CC2)c(CO)c(CO)c1O.Cl | –
64 | 2 | > 64 | > 64 | 64 | 64 | 4 | CCCC1OCc2c(CN3CCN(c4cc5c(cc4F)c(=O)c(C(=O)O)cn5C4CC4)CC3)cnc(C)c2O1 (centres undefined) | –
64 | 2 | > 64 | > 64 | 64 | 32 | 4 | CCCCCCCCC1OCc2c(CN3CCN(c4cc5c(cc4F)c(=O)c(C(=O)O)cn5C4CC4)CC3)cnc(C)c2O1 (centres undefined) | –
16 | 4 | > 64 | 8 | > 64 | 64 | 2 | CCn1cc(C(=O)O)c(=O)c2cc(F)c(N3CCN(Cc4nc(C)c5c(c4CO)COC(C)(C)O5)C(C)C3)c(F)c21 (centres undefined) | –
8 | 2 | > 64 | 64 | 8 | 8 | 4 | Cc1nc(CN2CCN(c3cc4c(cc3F)c(=O)c(C(=O)O)cn4C3CC3)CC2)c(CO)c2c1OC(C)(C)OC2 | –
32 | 4 | > 64 | > 64 | 8 | 8 | 16 | CCn1cc(C(=O)O)c(=O)c2cc(F)c(N3CCN(Cc4nc(C)c(O)c(CO)c4CO)CC3)cc21.Cl | –
